Source: patent EP4806904A1, “POLYPEPTIDE AND USE THEREOF” (Sichuan Gooddoctor Panxi Pharmaceutical Co. Ltd, priority 2023, dated 2026)

How the values were obtained:
[1] = test system: neural stem cell line C17.2; assay: Proliferation of neural stem cell line C17.2, BrdU, high-content imaging; format: cell-based; conditions: 100 µg/mL, 48 h; for Proliferation-promoting results: percentage of BrdU-positive cells, significance vs blank control group; for number of BrdU positive cells: vs blank control group, in words
Experimental: • (1) C17.2 cells were seeded in 96-well plates at a concentration of 1500 cells/100 µL/well. After overnight culture for cell adherence, the cells were treated with drugs; • (2) Drug treatment was applied. The final concentration of the polypeptide of the invention was 100 µg/mL. Meanwhile, butylphthalide (NBP, 5 µM) was set as the positive control. The cells were cultured in the incubator for another 48 h; • (3) BrdU was added at 44 h of treatment to a final concentration of 10 µM. Immunofluorescence staining was performed 4 h later, and the percentage of BrdU-positive cells was statistically analyzed using a high-content cell imaging analysis system.

[2] = test system: primary neural stem cells (NSCs); assay: Differentiation of primary neural stem cells, βIII-tubulin fluorescence and Neurite Outgrowth Assay; format: cell-based, SD rats; conditions: 100 µg/mL; for neurite outgrowth (total neurite length, maximum neurite length, neurite terminals, neurite initiation points): Neurite Outgrowth Assay; for neurite outgrowth (total neurite length, maximum neurite length, neurite terminals, neurite initiation points) / mean fluorescence intensity of the neuronal marker protein βIII-tubulin: in words; for mean fluorescence intensity of the neuronal marker protein βIII-tubulin: vs blank control group
Experimental: This part of the experiment requires feeding male and female rats in advance, then extracting hippocampal neural stem cells from newborn SD rats within 24 h of birth, culturing them to P3 for identification, and then using them for experiments. • (1) Extraction and culture of primary neural stem cells (NSCs) • (2) NSCs that have been passaged to P3 and have good viability were seeded in differentiation medium (2% FBS+DMEM/F12 1:1 medium) in 48-well plates with a cell concentration of 5×10^4 cells/mL per well. After overnight culture for cell adherence, the cells were treated with drugs; • (3) Drug treatment was applied. The final concentration of the polypeptide of the invention was 100 µg/mL. Meanwhile, nerve growth factor (NGF, 50 ng/mL) was set as the positive control, and the cells were cultured in the incubator for another 4 days; • (4) Immunofluorescence staining (primary antibody βIII-tubulin) was performed after 4 days of treatment. The average fluorescence intensity of βIII-tubulin was analyzed and the Neurite Outgrowth Assay was performed using a high-content cell imaging analysis system.

[3] = test system: Brain microvascular endothelial cells (BMECs) and brain microvascular smooth muscle cells (BMVSMCs); assay: In vitro angiogenesis assay, BMEC/BMVSMC co-culture on matrigel; format: cell-based, mouse; conditions: 0.1 mg/L, 48 h
Experimental: First, mouse brain microvascular pellets were obtained by differential centrifugation. Brain microvascular endothelial cells (BMECs) and brain microvascular smooth muscle cells (BMVSMCs) were isolated by digestion with collagenase II, respectively, and cultured in a cell incubator with 5% CO2 at 37°C . Cells at passages 3-6 in good growth condition and logarithmic growth phase were selected for the in vitro angiogenesis assay.
One night before the experiment, the high-concentration matrigel was transferred from a -20°C or -80°C refrigerator to a 4°C refrigerator and allowed to thaw slowly overnight in the 4°C refrigerator. Pipette tips required for the formal experiment were sterilized in advance and pre-cooled in a 4°C refrigerator for subsequent use.
On the day of the experiment, the matrigel was added to a 96-well plate 1 h in advance and placed in a 37°C cell incubator until it solidified. Subsequently, the cells were washed 2 times with 2 mL of PBS buffer, followed by digestion with 0.25% trypsin to obtain EC and VSMC pellets, respectively, and cell counting was performed. A uniform cell suspension containing 5×10^3 BMVSMCs and 1×10^3 BMECs per well was then seeded into the 96-well plate pre-coated with the matrigel, and cultured in a 37°C, 5% CO2 cell incubator for 3 days.
During the culture period, tube formation was observed daily. The medium was changed on day 4, followed by treatment with the polypeptide of the invention at 0.1 mg/L or VEGFA at 10/15/20 ng/L for 48 h, respectively.
On day 5, the cell nuclei and live cells were labeled with Hoechst 33342 and Calcein AM, respectively. High-content brightfield and fluorescence imaging were then performed using a high-content screening system. Finally, angiogenesis in each treatment group was analyzed using the Angiogenesis Analyzer plugin for ImageJ, and statistical analysis was carried out with GraphPad Prism 10.

[4] = test system: primary neural stem cells (NSCs); assay: Proliferation of primary neural stem cells, BrdU incorporation (Example 2.1); format: cell-based, SD rats; conditions: 0.02, 0.1, 0.5 mg/mL, 48 h, vs control group
Experimental: (§1) This part of the experiment requires feeding male and female rats in advance, then extracting hippocampal neural stem cells from newborn SD rats within 24 h of birth, culturing them to P3 for identification, and then using them for experiments.
(§2) Extraction and culture of primary neural stem cells (NSCs): Hippocampal neural stem cells were extracted from neonatal SD mice 24 h after birth. The procedure is as follows: first, the neonatal rats were disinfected by soaking in 75% ethanol, then transferred to a biological safety cabinet for manipulation under aseptic conditions. After the entire brain was removed from the neonatal mouse, it was immediately placed in cold D-Hanks solution to remove non-neural tissue. Under a dissecting microscope, the meninges were carefully removed and the hippocampal structures on both sides were separated. […]
Medium-sized neurospheres formed from P3-P4 generations were centrifuged at 800 rpm for 5 min, the supernatant was discarded, a small amount of complete medium was added and pipetted to form a single-cell suspension, the cells were resuspended, counted, and seeded at 1.0 x 10^5 cells/mL into 24-well plates coated with 25 µg/mL PLL. […] Immunofluorescence staining was performed 4 h later, and the cells were then observed and photographed under a fluorescence microscope. The BrdU-positive cell rate was statistically analyzed.

[5] = test system: primary neural stem cells (NSCs); assay: Differentiation of primary neural stem cells, MAP-2/GFAP immunofluorescence (Example 2.2); format: cell-based, SD rats; conditions: 0.02, 0.1, 0.5 mg/mL, 4 days, vs control group
Experimental: as §1
as §2, with “separated. The tissue was mechanically broken into flocculent pieces with a scalpel, pipetted, and the tissue sample was transferred to a 15 mL centrifuge tube and centrifuged at 800 rpm for 5 min.” for “separated.”
Medium-sized neurospheres cultured at P3-P4 were collected, centrifuged at 800 rpm for 5 min, and the supernatant was discarded. […] Subsequently, the images were observed and collected under a fluorescence microscope, and the mean fluorescence intensities of MAP-2 and GFAP were statistically analyzed respectively.

[6] = test system: tMCAO rats; assay: Cortical index 14 days after ischemia-reperfusion injury; format: in vivo, SD rats; conditions: 10 mg/kg, tail vein, treatment for 14 days, P<0.01
Experimental: (§3) Experimental animals, model establishment, grouping and drug administration are the same as in Example 5.
(§4) The cortical index was calculated for each group of rats 14 days after ischemia-reperfusion injury. tMCAO rats were treated with the polypeptide compound 1 of the invention for 14 days, and the expression of PSD95 and SYP was detected by Western blot.

[7] = test system: PSD95 and SYP; assay: Western blot of PSD95 and SYP in hippocampus and cortex; format: in vivo, SD rats; conditions: treatment for 14 days, vs Vehicle group, P<0.05
Experimental: as §3, §4

[8] = 4 days, significance vs blank control group
[9] = significance vs blank control group

Substance	Proliferation-promoting results [1]	number of BrdU positive cells [1]	neurite outgrowth (total neurite length, maximum neurite length, neurite terminals, neurite initiation points) ([2]; 4 days)	Longest neurite length [2, 8]	Neurite initiation points (branches) [2, 8]	Number of neurite terminals [2, 8]	Total neurite length [2, 8]	Branch length [3, 9]	Number of intersections [3, 9]	angiogenesis-promoting effects ([3]; vs normal group, in words)	mean fluorescence intensity of the neuronal marker protein βIII-tubulin ([2]; 4 days)	Cell count [3, 9]	cell proliferation ([3]; vs normal group, in words)	Branch length ([3]; vs normal group, in words)	number of junctions ([3]; vs normal group, in words)	also measured
Ac-ALPAPGTL-NH2 [Compound 11, Ac-Ala-Leu-Pro-Ala-Pro-Gly-Thr-Leu-NH2]	** (**p < 0.01)	significant increase	promote neurite outgrowth	** (**p < 0.01)	*** (***p < 0.001)	** (**p < 0.01)	*** (***p < 0.001)	* (*p < 0.05)	* (*p < 0.05)	exhibited angiogenesis-promoting effects						
H-ALPAAGTL-OH [Compound 17, H-Ala-Leu-Pro-Ala-Ala-Gly-Thr-Leu-OH]	** (**p < 0.01)										tendency to enhance	** (**p < 0.01)	only promoted cell proliferation			
H-ALPAGGTL-OH [Compound 15, H-Ala-Leu-Pro-Ala-Gly-Gly-Thr-Leu-OH]	* (*p < 0.05)		tendency to promote neurite outgrowth	* (*p < 0.05)					* (*p < 0.05)					no significant effects	promoting effects	
H-ALPAPGTL-NH2 [Compound 10, H-Ala-Leu-Pro-Ala-Pro-Gly-Thr-Leu-NH2]	** (**p < 0.01)	significant increase	tendency to promote neurite outgrowth			** (**p < 0.01)	* (*p < 0.05)				tendency to enhance	* (*p < 0.05)	only promoted cell proliferation			
H-ALPAPGTL-OH [Compound 1, H-Ala-Leu-Pro-Ala-Pro-Gly-Thr-Leu-OH]			promote neurite outgrowth	*** (***p < 0.001)	*** (***p < 0.001)	*** (***p < 0.001)	** (**p < 0.01)	** (**p < 0.01)	* (*p < 0.05)	exhibited angiogenesis-promoting effects	significant increase	*** (***p < 0.001)				percentage of BrdU-positive cells [4]: significantly increased; mean fluorescence intensity of GFAP [5]: significantly elevated; mean fluorescence intensity of MAP-2 [5]: significantly elevated; differentiation of NSCs into neuronal cells ([2]; conclusion based on the results of the two analytical methods): promote the differentiation of NSCs into neuronal cells with stable effects; Average fluorescence intensity ([2]; βIII-tubulin, 4 days, significance vs blank control group): ** (**p < 0.01); cortical index [6]: significantly increased; expression of PSD95 [7]: significantly increased; expression of SYP [7]: significantly increased
H-LAPAPGTI-OH [Compound 20, H-Leu-Ala-Pro-Ala-Pro-Gly-Thr-Ile-OH]	* (*p < 0.05)		tendency to promote neurite outgrowth	* (*p < 0.05)	* (*p < 0.05)				* (*p < 0.05)		tendency to enhance			no significant effects	promoting effects	
